Molecules are shown by their SMILES. pIC50: −log10 of the molar value.

In the first test the target is T1, TRAF6WTStrepII-Ubc13FH interaction (Homo sapiens, UniProt Q9Y4K3).
T1 construct: RING-Zincfinger1 (RZ1) domain (residues 50-159) of human TRAF6 wildtype; made in house; host or cells: E. coli BL21 codon plus RIPL
T1 sequence (Q9Y4K3 with tags, fused parts or gaps): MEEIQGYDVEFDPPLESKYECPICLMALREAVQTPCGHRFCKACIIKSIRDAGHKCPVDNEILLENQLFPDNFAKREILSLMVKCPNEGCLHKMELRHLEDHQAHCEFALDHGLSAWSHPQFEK
As to the kind of experiment: ALPHAScreen TRAF6-Ubc13 interaction assay. It counts as binding. As to conditions: TRAF6 100 nM, Ubc13FH 75 nM; class symbols; read-out: IC50 Alphascreen (inhibition of TRAF6-UBC13 interaction). From the text:
In order to identify small molecules that specifically target the RZ1 domain of TRAF6 and thereby prevent its binding to Ubc13, the ALPHAScreen technology (PerkinElmer) was chosen to detect TRAF6WTStrepII-Ubc13FH interaction in High-Throughput-Screenings as well as Structure Activity Relationship (SAR) analysis.
For performance of an automated ALPHAScreen assay, all following components were pre-diluted in ALPHAScreen buffer (1×PBS, 0.5% BSA, 0.01% Tween-20). First, the TRAF6 protein (end concentration 100 nM, 30 μL volume) was added to 384-well-opti-plates involving the MultiFlo dispensing system (BioTek) followed by transfer of the compounds via the Sciclone G3 transfer station (PerkinElmer). After addition of Ubc13FH (end concentration 75 nM, 10 μL volume) with the MultiFlo system and incubation for one hour at room temperature, both beads (Strep-Tactin Alpha Donor beads and Nickel-Chelate acceptor beads; end concentrations 4 μg each, 10 μL volume each) were mixed and added using the MultiFlo system in subdued light. Read-out of the plates occurred after another hour of incubation at room temperature. Statistical parameters including the coefficient of variation, Z′ factor and signal window were calculated to determine the quality of the HTS campaign. To evaluate the efficacy of the compounds, ALPHAScreen units of compound-treated samples were referred to DMSO control treated samples. Thereby, the TRAF6D57K mutant served as the control for minimum signal and was included on every plate of the screening. Compounds that inhibited TRAF6WTStrepII-Ubc13FH by more than 25% were considered as actives. After elimination of ALPHAScreen frequent hitter compounds and His-tag frequent hitters (Schorpp, K., I. Rothenaigner, E. Salmina, et al., Identification of Small-Molecule Frequent Hitters from AlphaScreen High-Throughput Screens. J Biomol Screen, 2014. 19(5): p. 715-26), 178 compounds were defined as primary hits and were subsequently tested in five-point serial dilution assays (2.5-40 μM) in TRAF6WTStrepII-Ubc13FH ALPHAScreen experiments. Only compounds with dose-dependent effects on TRAF6WTStrepII-Ubc13FH (n=27) were taken for further research. For analog testing, all compounds were analyzed in ten-point titration (0.2-100 μM) in TRAF6WTStrepII-Ubc13FH ALPHAScreen experiments. In parallel, the compounds were tested in the ALPHAScreen TruHits Kit (PerkinElmer) to rule out unspecific interference with the ALPHAScreen technology.
In general terms: In Alpha technology, singlet oxygen from a donor bead excites a nearby acceptor bead.
As usually defined, the pIC50 is the negative decadic logarithm of the IC50, by convention in mol/L. Take `Cc1nn(-c2ccc3nnc(C)n3n2)c(C)c1CCC(=O)N1CCN(Cc2ccc(C(N)=O)cc2)CC1` [Example 118]: the pIC50 was at least 5.00. On to `Cc1nn(-c2ccc3nnc(C)n3n2)c(C)c1CCC(=O)N1CCC(CCc2ccccc2)CC1` [Example 145], for which the pIC50 was at least 5.00.

Regarding `Cc1nn(-c2ccc3nnc(C)n3n2)c(C)c1CCC(=O)N1CCN(Cc2ccc(Cl)cc2Cl)CC1` [Example 132], the pIC50 is at least 5.00.

With `Cc1nn(-c2ccc3nnc(C)n3n2)c(C)c1CCC(=O)N1CCN(Cc2cccc(-c3ccccc3)c2)CC1` [Example 128], the pIC50 was at least 5.00.

Consider `Cc1nn(-c2ccc3nnc(C)n3n2)c(C)c1CCC(=O)N1CCN(Cc2ccc(N(C)C)cc2)CC1` [Example 114], for which the pIC50 is at least 5.00. On the same count and under the same terms, then `Cc1nn(-c2ccc3nnc(C)n3n2)c(C)c1CCC(=O)N1CCN(Cc2cccc(-c3nn[nH]n3)c2)CC1` [Example 154], with at least 5.52; and `COC(=O)c1ccc(CN2CCN(C(=O)CCc3c(C)nn(-c4ccc5nnc(C)n5n4)c3C)CC2)cc1` [Example 96], with at least 5.52; and `Cc1nn(-c2ccc3nnc(C)n3n2)c(C)c1CCC(=O)N1CCN(Cc2cc(F)c(O)c(F)c2)CC1` [Example 146], with at least 5.52. Take `Cc1nn(-c2ccc3nnc(C)n3n2)c(C)c1CCC(=O)N1CCN(Cc2ccc(C#N)cc2)CC1` [Example 109]: the pIC50 was at least 4.52.

In the case of `COc1ccc(CN2CCN(C(=O)CCc3c(C)nn(-c4ccc5nnc(C)n5n4)c3C)CC2)cc1` [Example 157], the pIC50 is at least 5.00. Still for that read-out and setting: the figure for `Cc1nn(-c2ccc3nnc(C(F)(F)F)n3n2)c(C)c1CCC(=O)N1CCN(Cc2ccc(C#N)cc2F)CC1` [Example 190] is at least 5.52.

In general, inhibition refers to the relative decrease from the control value, in per cent. With `Cc1nn(-c2ccc3nnc(C)n3c2)c(C)c1CCC(=O)N1CCC(CCc2ccccc2)CC1` [Example 104], the inhibition at 100 µM was at least 30%.

On to `Cc1nn(-c2ccc3nnc(C)n3n2)c(C)c1CCC(=O)N1CCN(Cc2cccc(C(N)=O)c2)CC1` [Example 100], for which the inhibition at 100 µM is at least 30%. For the compound `Cc1nn(-c2ccc3nnc(C(F)(F)F)n3n2)c(C)c1CCC(=O)N1CCN(Cc2cccc(-c3nnn[nH]3)c2C)CC1` [Example 180], the pIC50 is at least 5.00. Turning to `Cc1nn(-c2ccc3nnc(C)n3n2)c(C)c1CCC(=O)N1CCN(Cc2cccc(C3CC3)c2)CC1` [Example 161], the pIC50 is at least 5.52.

Turning to `Cc1nn(-c2ccc3nnc(C)n3n2)c(C)c1CCC(=O)N1CCN(Cc2ccc(C(=O)O)c(F)c2)CC1` [Example 131], the pIC50 was at least 5.52. Consider `Cc1cc(CN2CCN(C(=O)CCc3c(C)nn(-c4ccc5nnc(C)n5n4)c3C)CC2)cc([N+](=O)[O-])c1` [Example 129], for which the pIC50 is at least 5.52. As to `Cc1nn(-c2ccc3nnc(C)n3n2)c(C)c1CCC(=O)N1CCNC(Cc2ccccc2)C1` (stereo not shown) [Example 102], the pIC50 is at least 4.52. In the case of `Cc1nn(-c2ccc3nnc(C)n3n2)c(C)c1CCC(=O)N1CCN(Cc2ccc(C(F)(F)F)cc2)CC1` [Example 110], the negative-log IC50 (pIC50) is at least 4.52. In the case of `Cc1nn(-c2ccc3nnc(C)n3n2)c(C)c1CCC(=O)N1CCCC(Cc2ccccc2)C1` (stereo not shown) [Example 103], the inhibition at 100 µM was at least 30%.

`Cc1nn(-c2ccc3nnc(C)n3n2)c(C)c1CCC(=O)N1CCN(Cc2ccc(-c3nnn[nH]3)cc2)CC1` [Example 164]: the pIC50 is at least 5.52. Still for that read-out and setting: then `Cc1nn(-c2ccc3nnc(C)n3n2)c(C)c1CCC(=O)N1CCN(Cc2ccc(F)c(C(F)(F)F)c2)CC1` [Example 162], with at least 5.00; and `Cc1nn(-c2ccc3nnc(C)n3n2)c(C)c1CCC(=O)N1CCN(Cc2ccc3cccnc3c2)CC1` [Example 150], with at least 5.00. The same measure, in the same setting: the figure for `Cc1nn(-c2ccc3nnc(C(F)(F)F)n3n2)c(C)c1CCC(=O)N1CCN(Cc2cc(F)cc(C#N)c2)CC1` [Example 181] is at least 4.52. As for `Cc1nn(-c2ccc3nnc(C)n3c2)c(C)c1CCC(=O)N1CCCC(Cc2ccccc2)C1` (stereo not shown) [Example 106], the inhibition at 100 µM is at least 30%. On to `Cc1nn(-c2ccc3nnc(C)n3n2)c(C)c1CCC(=O)N1CCN(Cc2cccc([N+](=O)[O-])c2)CC1` [Example 149], for which the pIC50 is at least 5.00.

Regarding `Cc1nn(-c2ccc3nnc(C)n3n2)c(C)c1CCC(=O)N1CCN(Cc2ccc(C#N)cc2Cl)CC1` [Example 188], the pIC50 was at least 4.52. Take `Cc1nn(-c2ccc3nnc(C)n3n2)c(C)c1CCC(=O)N1CCN(Cc2cc(-c3nnn[nH]3)ccc2Cl)CC1` [Example 171]: the pIC50 is at least 5.52. The same measure, in the same setting: then `Cc1nn(-c2ccc3nnc(C)n3n2)c(C)c1CCC(=O)N1CCN(Cc2ccc3oc(=O)ccc3c2)CC1` [Example 166], with at least 5.00; and `CC(=O)c1ccc(CN2CCN(C(=O)CCc3c(C)nn(-c4ccc5nnc(C)n5n4)c3C)CC2)cc1` [Example 108], with at least 5.00.

Regarding `Cc1nn(-c2ccc3nnc(C(F)(F)F)n3n2)c(C)c1CCC(=O)N1CCN(Cc2cccc(-c3nnn[nH]3)c2Cl)CC1` [Example 176], the pIC50 is at least 5.52. Still for that read-out and setting: the figure for `Cc1nn(-c2ccc3nnc(C)n3n2)c(C)c1CCC(=O)N1CCN(Cc2cccc(I)c2)CC1` [Example 134] is at least 5.52; for `Cc1nn(-c2ccc3nnc(C(F)(F)F)n3n2)c(C)c1CCC(=O)N1CCN(Cc2ccc(C#N)cc2Cl)CC1` [Example 189] it is at least 4.52; for `Cc1ccc(CN2CCN(C(=O)CCc3c(C)nn(-c4ccc5nnc(C)n5n4)c3C)CC2)cc1` [Example 139] it is at least 4.52. Still for that read-out and setting: the figure for `Cc1ccccc1CN1CCN(C(=O)CCc2c(C)nn(-c3ccc4nnc(C)n4n3)c2C)CC1` [Example 160] is at least 5.52; for `Cc1nn(-c2ccc3nnc(C)n3n2)c(C)c1CCC(=O)N1CCN(Cc2ccc(C(=O)O)cc2)CC1` [Example 97] it is at least 5.52. Same read-out and setting: the figure for `Cc1nn(-c2ccc3nnc(C)n3n2)c(C)c1CCC(=O)N1CCN(Cc2cccc(C(=O)O)c2)CC1` [Example 99] is at least 5.52. For `Cc1nn(-c2ccc3nnc(C)n3n2)c(C)c1CCC(=O)N1CCN(Cc2ccc(-c3ccccc3)cc2)CC1` [Example 113], the pIC50 was at least 5.00.

Take `Cc1nn(-c2ccc3nnc(C)n3n2)c(C)c1CCC(=O)N1CCN(Cc2ccc3cn[nH]c3c2)CC1` [Example 137]: the pIC50 is at least 5.00. Turning to `COC(=O)c1cccc(CN2CCN(C(=O)CCc3c(C)nn(-c4ccc5nnc(C)n5n4)c3C)CC2)c1` [Example 98], the pIC50 was at least 5.00.

Regarding `Cc1nn(-c2ccc3nnc(C)n3n2)c(C)c1CCC(=O)N1CCN(Cc2ccccc2Cl)CC1` [Example 144], the pIC50 was at least 5.00.

Regarding `Cc1nn(-c2ccc3nnc(C)n3n2)c(C)c1CCC(=O)N1CCN(Cc2c(Cl)cccc2Cl)CC1` [Example 142], the pIC50 was at least 5.00.

A further test concerns the target T2, TRAF6-Ubc13 binding in HEK293T cells (Homo sapiens, UniProt Q9Y4K3).
T2 construct: RING-Zincfinger1 (RZ1) domain (residues 50-159) of human TRAF6 wildtype; expressed in transfected cells; host or cells: HEK 293T
T2 sequence (Q9Y4K3 50-159): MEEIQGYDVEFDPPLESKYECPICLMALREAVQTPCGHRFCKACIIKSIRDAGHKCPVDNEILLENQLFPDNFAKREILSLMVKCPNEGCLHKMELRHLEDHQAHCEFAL
As to the kind of experiment: Co-immunoprecipitation of HA-TRAF6 and Ubc13 in HEK 293T cells. It counts as cell-based.
Conditions: not given
The method, then: To study the interaction of TRAF6 and Ubc13 in cells, 1×10^6 293T cells were seeded and after 18 hours cells were transfected with 1 μg pEF-HA empty or pEF-HA-TRAF6 RZ1 plasmid using the X-tremeGENE HP DNA transfection reagent (Roche). 6 hours upon transfection, cells were treated with compound or DMSO. After 42 hours further incubation, cells were harvested in Co-IP lysis buffer and HA-TRAF6 was immunoprecipitated with anti-HA affinity matrix (Roche). Binding of Ubc13 to TRAF6 was examined in Western Blot analysis.
In the case of `Cc1nn(-c2ccc3nnc(C)n3n2)c(C)c1CCC(=O)N1CCN(Cc2ccc(F)cc2)CC1` [HZM06-3, 1-(4-(4-fluorobenzyl)piperazin-1-yl)-3-(3,5-dimethyl-1-(3-methyl-[1,2,4]triazolo[4,3-b]pyridazin-6-yl)-1H-pyrazol-4-yl)propan-1-one], the “interaction of endogenous Ubc13 with HA-tagged TRAF6 (co-immunoprecipitation)” value is “also active in cells”.
